From US9688702B2, “Alpha-amino boronic acid derivatives, selective immunoproteasome inhibitors” (Ares Trading S.A, priority 2011, dated 2017) come the findings set out here.

A value given as a limit tells only on which side of the number the result lay.

Test [1] has as its target Beta5 (purified human constitutive proteasome) (Homo sapiens, UniProt P28074). Put plainly: Determination of Beta5 activity (fluorescence intensity assay, Suc-LLVY-AMC). The following applies: purified human constitutive proteasome 1.0 nM, 40 μM Suc-LLVY-AMC, 37° C. It counts as biochemical. The protocol: Measurement of Beta5 inhibition is performed in 384 well format based on fluorescence intensity assay.
Purified human constitutive proteasome (1.0 nM) and serial diluted compounds in DMSO (range of concentrations from 10 μM to 38 pM) or controls (0.5% DMSO) are incubated for 30 minutes at 37° C. in assay buffer containing 50 mM Tris pH 7.4 and 0.03% SDS. The reaction is initiated by the addition of the fluorogenic peptide substrate, Suc-LLVY-AMC (Bachem 1-1395), at a concentration of 40 μM. After 90 minutes of incubation at 37° C., fluorescence intensity is measured at λex=350 nm and λem=450 nm with a fluorescence reader (BMG Pherastar reader or equivalent).

Test [2] addresses LMP7 (purified human immuno proteasome) (Homo sapiens, UniProt P28062). The test can be described thus: Determination of LMP7 activity (fluorescence intensity assay, Suc-LLVY-AMC). The following applies: for IC50: purified human immuno proteasome 0.5 nM, 40 μM Suc-LLVY-AMC, 37° C. It counts as biochemical. The protocol: Measurement of LMP7 inhibition is performed in 384 well format based on fluorescence intensity assay.
Purified human immuno proteasome (0.5 nM) and serial diluted compounds in DMSO (range of concentrations from 10 μM to 38 pM) or controls (0.5% DMSO) are incubated for 30 minutes at 37° C. in assay buffer containing 50 mM Tris pH 7.4 and 0.03% SDS. The reaction is initiated by the addition of the fluorogenic peptide substrate, Suc-LLVY-AMC (Bachem I-1395), at a concentration of 40 μM. After 90 minutes of incubation at 37° C., fluorescence intensity is measured at λex=350 nm and λem=450 nm with a fluorescence reader (BMG Pherastar reader or equivalent).
Purified human immuno proteasome (0.25 nM) and serial diluted compounds in DMSO (range of concentrations from 10 μM to 38 pM) or controls (0.5% DMSO) are incubated for 30 minutes at 37° C. in assay buffer containing 50 mM Tris pH 7.4 and 0.03% SDS. The reaction is initiated by the addition of the fluorogenic peptide substrate, Suc-LLVY-AMC (Bachem I-1395), at a concentration of 40 μM. After 90 minutes of incubation at 37° C., fluorescence intensity is measured at λex=350 nm and λem=450 nm with a fluorescence reader (BMG Pherastar reader or equivalent).

Usually IC50 stands for the point on the concentration scale where inhibition reaches its midpoint. Low readings indicate higher potency, high ones lower potency. For the compound `O=C(CCC(=O)c1cccc(-c2ccccc2)c1)N[C@@H](Cc1ccsc1)B(O)O` [Example 22, [(1R)-1-[(4-biphenyl-3-yl-4-oxobutanoyl)amino]-2-(3-thienyl)ethyl]boronic acid], in test [1], the IC50 was 500 to 5000 nM. For the same compound, in test [2], the “Selectivity LMP7 vs Beta5” value is reported as “++ (++: 10 < Selectivity < 30)” and the IC50 fell in the range of 50 to 500 nM.
In turn, `O=C(CCC(=O)c1cccc(-c2ccccc2)n1)N[C@@H](Cc1ccsc1)B(O)O` [Example 23, [(1R)-1-{[4-oxo-4-(6-phenylpyridin-2-yl)butanoyl]amino}-2-(3-thienyl)ethyl]boronic acid] displayed an IC50 in test [1] of 500 to 5000 nM. In addition, in test [2], the “Selectivity LMP7 vs Beta5” value was “++ (++: 10 < Selectivity < 30)” and the IC50 fell in the range of 50 to 500 nM.
For `COc1ccc(C(=O)CCC(=O)N[C@@H](Cc2cccc(C(F)(F)F)c2)B(O)O)cc1` [Example 26, {(1R)-1-{[4-(4-methoxyphenyl)-4-oxobutanoyl]amino}-2-[3-(trifluoromethyl)phenyl]ethyl}boronic acid], the IC50 in test [1] was greater than 5000 nM. For the same compound, in test [2], the “Selectivity LMP7 vs Beta5” value is reported as “+++ (+++: Selectivity > 30)” and the IC50 was 50 to 500 nM.
Consider `CCc1cccc(C[C@H](NC(=O)CCn2ncc3ccccc32)B(O)O)c1` [Example 28, ((1R)-2-(3-ethylphenyl)-1-{[3-(1H-indazol-1-yl)propanoyl]amino}ethyl)boronic acid], for which the IC50 fell in the range of 500 to 5000 nM in test [1] and 50 to 500 nM in test [2]. Further, the “Selectivity LMP7 vs Beta5” value in test [2] is recorded as “++ (++: 10 < Selectivity < 30)”.
`CCc1cccc(C[C@H](NC(=O)CCn2cnc3ccccc32)B(O)O)c1` [Example 29, [(1R)-1-{[3-(1H-benzimidazol-1-yl)propanoyl]amino}-2-(3-ethylphenyl)ethyl]boronic acid]: the IC50 in test [1] lay within 50 to 500 nM. For the same compound, in test [2], the “Selectivity LMP7 vs Beta5” value is given as “++ (++: 10 < Selectivity < 30)” and the IC50 is less than 50 nM.
In the same order, the values of `CCc1cccc(C[C@H](NC(=O)CCn2c(=O)sc3ccccc32)B(O)O)c1` [Example 30, ((1R)-2-(3-ethylphenyl)-1-{[3-(2-oxo-1,3-benzothiazol-3(2H)-yl)propanoyl]amino}ethyl)boronic acid] are 50 to 500 nM, “++ (++: 10 < Selectivity < 30)” and less than 50 nM.
In the case of `CCc1cccc(C[C@H](NC(=O)CCn2nnc3ccccc32)B(O)O)c1` [Example 31, [(1R)-1-{[3-(1H-1,2,3-benzotriazol-1-yl)propanoyl]amino}-2-(3-ethylphenyl)ethyl]boronic acid], the IC50 in test [1] lay within 50 to 500 nM. Moreover, in test [2], the “Selectivity LMP7 vs Beta5” value is recorded as “++ (++: 10 < Selectivity < 30)” and the IC50 is less than 50 nM.
For `O=C(CCn1ncc2ccccc21)N[C@@H](Cc1ccsc1)B(O)O` [Example 32, [(1R)-1-{[3-(1H-indazol-1-yl)propanoyl]amino}-2-(3-thienyl)ethyl]boronic acid], the IC50 in test [1] was in the range of 50 to 500 nM. In test [2], the “Selectivity LMP7 vs Beta5” value is on record as “+ (+: Selectivity < 10)” and the IC50 fell in the range of 50 to 500 nM.
`O=C(CCn1cnc2ccccc21)N[C@@H](Cc1ccsc1)B(O)O` [Example 33, [(1R)-1-{[3-(1H-benzimidazol-1-yl)propanoyl]amino}-2-(3-thienyl)ethyl]boronic acid] returned an IC50 in test [1] of 50 to 500 nM. For the same compound, in test [2], the “Selectivity LMP7 vs Beta5” value was “+ (+: Selectivity < 10)” and the IC50 is 50 to 500 nM.
`O=C(CCn1c(=O)sc2ccccc21)N[C@@H](Cc1ccsc1)B(O)O` [Example 34, [(1R)-1-{[3-(2-oxo-1,3-benzothiazol-3(2H)-yl)propanoyl]amino}-2-(3-thienyl)ethyl]boronic acid]: the IC50 in test [1] is 50 to 500 nM. In addition, in test [2], the “Selectivity LMP7 vs Beta5” value was “+ (+: Selectivity < 10)” and the IC50 is less than 50 nM.
For the compound `O=C(CCn1nnc2ccccc21)N[C@@H](Cc1ccsc1)B(O)O` [Example 35, [(1R)-1-{[3-(1H-1,2,3-benzotriazol-1-yl)propanoyl]amino}-2-(3-thienyl)ethyl]boronic acid], the results for the IC50 in test [1] and in test [2] were 50 to 500 nM and less than 50 nM, respectively. The “Selectivity LMP7 vs Beta5” value in test [2] is given as “+ (+: Selectivity < 10)”.
In test [1], `CCc1cccc(C[C@H](NC(=O)CCc2noc(-c3ccccc3)n2)B(O)O)c1` [Example 36, ((1R)-2-(3-ethylphenyl)-1-{[3-(5-phenyl-1,2,4-oxadiazol-3-yl)propanoyl]amino}ethyl)boronic acid] displayed an IC50 of 500 to 5000 nM. In test [2], the “Selectivity LMP7 vs Beta5” value was “+++ (+++: Selectivity > 30)” and the half-inhibitory concentration (IC50) is less than 50 nM.
In test [1], `O=C(CCc1noc(-c2ccccc2)n1)N[C@@H](Cc1ccsc1)B(O)O` [Example 37, [(1R)-1-{[3-(5-phenyl-1,2,4-oxadiazol-3-yl)propanoyl]amino}-2-(3-thienyl)ethyl]boronic acid] had a concentration for half-maximal inhibition (IC50) of 500 to 5000 nM. In test [2], the “Selectivity LMP7 vs Beta5” value is listed as “++ (++: 10 < Selectivity < 30)” and the IC50 was in the range of 50 to 500 nM.
For the compound `O=C(CCn1cnc2ccccc21)N[C@@H](Cc1cccc(C(F)(F)F)c1)B(O)O` [Example 38, {(1R)-1-{[3-(1H-benzimidazol-1-yl)propanoyl]amino}-2-[3-(trifluoromethyl)phenyl]ethyl}boronic acid], in test [1], the IC50 is 50 to 500 nM. Moreover, in test [2], the “Selectivity LMP7 vs Beta5” value was “++ (++: 10 < Selectivity < 30)” and the IC50 is less than 50 nM.
`O=C(CCc1noc(-c2ccccc2)n1)N[C@@H](Cc1cccc(C(F)(F)F)c1)B(O)O` [Example 39, {(1R)-1-{[3-(5-phenyl-1,2,4-oxadiazol-3-yl)propanoyl]amino}-2-[3-(trifluoromethyl)phenyl]ethyl}boronic acid]: the IC50 in test [1] is 500 to 5000 nM. Besides, in test [2], the “Selectivity LMP7 vs Beta5” value is reported as “+++ (+++: Selectivity > 30)” and the IC50 is 50 to 500 nM.
Take `O=C(CCn1cc(-c2ccccc2)nn1)N[C@@H](Cc1ccsc1)B(O)O` [Example 40, [(1R)-1-{[3-(4-phenyl-1H-1,2,3-triazol-1-yl)propanoyl]amino}-2-(3-thienyl)ethyl]boronic acid]: in test [1], the IC50 lay within 50 to 500 nM. For the same compound, in test [2], the “Selectivity LMP7 vs Beta5” value is given as “++ (++: 10 < Selectivity < 30)” and the IC50 was less than 50 nM.
Consider `O=C(CCc1cn(-c2ccccc2)nn1)N[C@@H](Cc1ccsc1)B(O)O` [Example 41, [(1R)-1-{[3-(1-phenyl-1H-1,2,3-triazol-4-yl)propanoyl]amino}-2-(3-thienyl)ethyl]boronic acid], for which, in test [1], the 50% inhibitory concentration (IC50) lay in the range of 500 to 5000 nM. Besides, in test [2], the “Selectivity LMP7 vs Beta5” value is “+++ (+++: Selectivity > 30)” and the IC50 was less than 50 nM.
As to `CCc1cccc(C[C@H](NC(=O)Cn2ccc3ccccc3c2=O)B(O)O)c1` [Example 42, ((1R)-2-(3-ethylphenyl)-1-{[(1-oxoisoquinolin-2(1H)-yl)acetyl]amino}ethyl)boronic acid], the figures for the IC50 in test [1] and in test [2] were 500 to 5000 nM and 50 to 500 nM, respectively. In addition, the “Selectivity LMP7 vs Beta5” value in test [2] is “++ (++: 10 < Selectivity < 30)”.
As to `COc1ccc(C(=O)CCC(=O)N[C@@H](Cc2ccc(OC(F)(F)F)cc2)B(O)O)cc1` [Example 43, (R)-(1-(4-(4-methoxyphenyl)-4-oxobutanamido)-2-(4-(trifluoromethoxy)phenyl)ethyl)boronic acid], the IC50 in test [1] fell in the range of 500 to 5000 nM; in test [2], 50 to 500 nM. Moreover, the “Selectivity LMP7 vs Beta5” value in test [2] was “++ (++: 10 < Selectivity < 30)”.
`COc1ccc(C(=O)CC(Cc2ccccc2)C(=O)N[C@@H](Cc2ccc(OC(F)(F)F)cc2)B(O)O)cc1` (stereo partly drawn) [Example 44, ((1R)-1-(2-benzyl-4-(4-methoxyphenyl)-4-oxobutanamido)-2-(4-(trifluoromethoxy)phenyl)ethyl)boronic acid] registered an IC50 in test [1] of 50 to 500 nM. Moreover, in test [2], the “Selectivity LMP7 vs Beta5” value is reported as “++ (++: 10 < Selectivity < 30)” and the IC50 was less than 50 nM.
In test [1], `COc1ccc(C(=O)C[C@@H](Cc2ccccc2)C(=O)N[C@@H](Cc2ccc(OC)c(C(F)(F)F)c2)B(O)O)cc1` [Example 45, ((R)-1-((R)-2-benzyl-4-(4-methoxyphenyl)-4-oxobutanamido)-2-(4-methoxy-3-(trifluoromethyl)phenyl)ethyl)boronic acid] registered an IC50 of 500 to 5000 nM. For the same compound, in test [2], the “Selectivity LMP7 vs Beta5” value is “+++ (+++: Selectivity > 30)” and the IC50 is less than 50 nM.
For `COc1ccc(C(=O)CCC(=O)N[C@@H](Cc2ccc(OC)c(C(F)(F)F)c2)B(O)O)cc1` [Example 46, (R)-(2-(4-methoxy-3-(trifluoromethyl)phenyl)-1-(4-(4-methoxyphenyl)-4-oxobutanamido)ethyl)boronic acid], the IC50 was greater than 5000 nM in test [1] and 50 to 500 nM in test [2].
